# Assay results taken from patent US11702419B2, “Heterocyclic compound and use thereof” (Takeda Pharmaceutical Company Limited, priority 2018, dated 2023).
# Biological target: T1, NMDA receptor composed of four subunits consisting of two sets of heterodimers of NR1 and NR2B (human GRIN1 and GRIN2B-expressing HEK293 cells) (Homo sapiens, UniProt Q13224)
# T1 construct: host or cells: HEK293 (tetracycline-inducible expression)
# Test: NR2B Ca2+ influx assay
# Format: cell-based
# Settings: 10 μM compound, glutamic acid/glycine-induced Ca2+ influx, FLIPR, read-out: inhibitory rate (10 μM compound concentration)
# Experimental: In order to confirm an “antagonistic action on an NMDA receptor containing the NR2B subunit” which the compound of the present invention has, inhibitory effect on the NMDA receptor activation was evaluated using “NMDA receptor composed of four subunits consisting of two sets of heterodimers of NR1 and NR2B”-expressing human fetal renal cells, specifically human glutamate ionotropic receptor NMDA type subunit 1 (GRIN1) and human glutamate ionotropic receptor NMDA type subunit 2B (GRIN2B)-expressing HEK293 cells.
# As an index of the NMDA receptor activation, intracellular calcium ion (Ca^2+) influx caused by bonding of glycine and glutamate to NR1 and NR2B respectively was used. HEK293 cells were purchased from ChanTest. The cells were cultured in a DMEM/F-12 (COSMO BIO, 10-092-CM) medium containing 10% FBS (fetal bovine serum, AusGene), 100 units/mL penicillin, 100 μg/mL streptomycin, 500 μg/mL neomycin, 100 μg/mL Zeocin and 5 μg/mL Blasticidin at 37° C., 5% CO2. The cells were detached from flask with trypsin the day before the assay, suspended in a seeding medium (DMEM (Invitrogen, 31053) containing 10% FBS, 100 units/mL penicillin and 100 μg/mL streptomycin) at 8×10^5 cells/mL, seeded by 25 μL per well in a 384-well plate (Falcon, 356663) at 20000 cells/well, and cultured overnight in an incubator. On the day of the assay, tetracycline (Wako Pure Chemical Industries, 209-16561) was diluted with the seeding medium at 2 μg/mL, and the dilution was added at 25 μL/well to the plate seeded with the cells, and the cells were cultured for 2 hr in an incubator. Thereafter, the medium was removed, and the cells were washed with 50 μL/well of assay buffer (137 mM NaCl, 4 mM KCl, 1.8 mM CaCl2, 10 mM HEPES (pH 7.2), 10 mM Glucose, and 0.1% BSA). Then, a loading buffer (assay buffer containing 2.5 μM Fluo-4AM, 2 mM Amaranth and 1 mM Tartrazine) was added thereto at 25 μL/well, and loading was performed in the incubator for 30 min, and then at room temperature for 15 min. The test compound was diluted with the above-mentioned assay buffer so as to adjust the concentration to 30 μM, the obtained solution (25 μL) was added thereto (the final concentration 10 μM), and the cells were stood for 15 min at room temperature. Using FLIPR (Molecular Devices), 25 μL of an assay buffer containing 30 μM glutamic acid and 30 μM glycine was added thereto, and the fluorescence signal was measured every 3 seconds for 5 min. The relative activity value (inhibitory rate) was calculated when the cumulative total value of the fluorescence value of a well added with a buffer free of glutamic acid and glycine, relative to the cumulative total value of the fluorescence value of each well are regarded as 100% inhibition. The obtained value was evaluated as an inhibitory activity.
# T1 sequence (Q13224 27-1484, other chains not shown): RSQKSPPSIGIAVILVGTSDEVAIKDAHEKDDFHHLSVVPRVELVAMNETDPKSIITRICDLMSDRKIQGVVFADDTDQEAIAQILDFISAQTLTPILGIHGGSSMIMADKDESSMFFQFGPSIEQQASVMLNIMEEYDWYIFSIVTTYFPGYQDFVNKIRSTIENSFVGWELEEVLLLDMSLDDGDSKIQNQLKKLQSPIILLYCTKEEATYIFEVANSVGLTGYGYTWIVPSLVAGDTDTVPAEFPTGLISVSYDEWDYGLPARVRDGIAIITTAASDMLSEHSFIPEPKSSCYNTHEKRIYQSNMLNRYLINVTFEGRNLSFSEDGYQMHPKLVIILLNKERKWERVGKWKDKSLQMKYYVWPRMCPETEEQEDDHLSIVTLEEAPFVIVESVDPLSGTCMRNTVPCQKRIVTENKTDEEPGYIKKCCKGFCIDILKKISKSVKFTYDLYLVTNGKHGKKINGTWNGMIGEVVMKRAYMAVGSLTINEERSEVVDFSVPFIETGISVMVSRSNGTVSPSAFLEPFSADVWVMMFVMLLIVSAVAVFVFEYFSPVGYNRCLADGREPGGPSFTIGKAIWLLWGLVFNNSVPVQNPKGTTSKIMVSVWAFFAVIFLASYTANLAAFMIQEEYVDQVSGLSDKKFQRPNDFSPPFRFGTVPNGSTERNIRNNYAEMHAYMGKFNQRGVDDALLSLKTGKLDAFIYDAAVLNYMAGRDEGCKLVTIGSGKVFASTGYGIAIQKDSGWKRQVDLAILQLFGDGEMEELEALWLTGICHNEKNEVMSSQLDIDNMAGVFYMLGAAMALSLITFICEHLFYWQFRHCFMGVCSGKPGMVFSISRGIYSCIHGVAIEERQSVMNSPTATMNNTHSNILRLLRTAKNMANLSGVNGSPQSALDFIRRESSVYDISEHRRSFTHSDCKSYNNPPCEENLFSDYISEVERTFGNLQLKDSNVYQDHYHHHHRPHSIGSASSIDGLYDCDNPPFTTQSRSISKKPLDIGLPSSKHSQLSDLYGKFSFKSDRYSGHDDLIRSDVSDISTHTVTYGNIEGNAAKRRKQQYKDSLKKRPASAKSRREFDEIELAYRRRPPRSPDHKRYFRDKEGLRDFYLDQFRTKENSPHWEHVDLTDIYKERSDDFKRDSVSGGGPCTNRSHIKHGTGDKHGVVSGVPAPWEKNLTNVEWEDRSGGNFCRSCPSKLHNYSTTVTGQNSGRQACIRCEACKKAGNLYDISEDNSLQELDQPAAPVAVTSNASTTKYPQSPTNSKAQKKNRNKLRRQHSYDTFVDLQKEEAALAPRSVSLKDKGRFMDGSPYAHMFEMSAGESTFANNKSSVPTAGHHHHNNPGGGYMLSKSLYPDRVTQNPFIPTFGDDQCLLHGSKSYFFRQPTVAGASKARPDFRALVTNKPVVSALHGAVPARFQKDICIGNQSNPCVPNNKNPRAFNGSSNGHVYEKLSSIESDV
row,inhibition at 10 µM [%],SMILES
1,96,"O=C(NCc1nnn2ccccc12)c1ccc(OC(F)F)c(Cl)c1 [Example 34, 3-chloro-4-(difluoromethoxy)-N-([1,2,3]triazolo[1,5-a]pyridin-3-ylmethyl)benzamide]"
2,99,"O=C(NCc1cnn2ncccc12)c1ccc(OC(F)(F)F)c(F)c1 [Example 5, 3-fluoro-N-(pyrazolo[1,5-b]pyridazin-3-ylmethyl)-4-(trifluoromethoxy)benzamide]"
3,94,"O=C(NCc1nnn2cc(F)ccc12)c1ccc(OC(F)(F)F)cc1 [Example 1, N-((6-fluoro[1,2,3]triazolo[1,5-a]pyridin-3-yl)methyl)-4-(trifluoromethoxy)benzamide]"
4,97,"O=C(NCc1nnn2ncccc12)c1ccc(OC(F)F)c(F)c1 [Example 33, 4-(difluoromethoxy)-3-fluoro-N-([1,2,3]triazolo[1,5-b]pyridazin-3-ylmethyl)benzamide]"
5,95,"Cc1ccnn2nnc(CNC(=O)c3ccc(OC(F)(F)F)c(F)c3)c12 [Example 52, 3-fluoro-N-((4-methyl[1,2,3]triazolo[1,5-b]pyridazin-3-yl)methyl)-4-(trifluoromethoxy)benzamide]"
6,83,"O=C(NCc1nnn2ccccc12)c1ccc(C(F)(F)F)c(F)c1 [Example 68, 3-fluoro-N-([1,2,3]triazolo[1,5-a]pyridin-3-ylmethyl)-4-(trifluoromethyl)benzamide]"
7,94,"O=C(NCc1nnn2ccccc12)c1ccc(OC(F)F)c(F)c1 [Example 35, 4-(difluoromethoxy)-3-fluoro-N-([1,2,3]triazolo[1,5-a]pyridin-3-ylmethyl)benzamide]"
8,93,"O=C(NCc1cnn2nccnc12)c1ccc(OC(F)(F)F)c(F)c1 [Example 47, 3-fluoro-N-(pyrazolo[1,5-b][1,2,4]triazin-8-ylmethyl)-4-(trifluoromethoxy)benzamide]"
9,98,"Cn1ccn2ncc(CNC(=O)c3ccc(OC(F)(F)F)cc3)c12 [Example 66, N-((1-methyl-1H-imidazo[1,2-b]pyrazol-7-yl)methyl)-4-(trifluoromethoxy)benzamide]"
10,98,"O=C(NCc1nnn2ncccc12)c1ccc(OC(F)(F)F)c(F)c1 [Example 18, 3-fluoro-N-([1,2,3]triazolo[1,5-b]pyridazin-3-ylmethyl)-4-(trifluoromethoxy)benzamide]"

# Further lines, the compound ahead of its results:
row,SMILES,inhibition at 10 µM [%]
1,"COc1c(F)cc(C(=O)NCc2cnn3ccn(C)c23)cc1F [Example 62, 3,5-difluoro-4-methoxy-N-((1-methyl-1H-imidazo[1,2-b]pyrazol-7-yl)methyl)benzamide]",95
2,"Cc1ccnn2ncc(CNC(=O)c3cnc(OC(F)F)c(F)c3)c12 [Example 37, 6-(difluoromethoxy)-5-fluoro-N-((4-methylpyrazolo[1,5-b]pyridazin-3-yl)methyl)nicotinamide]",96
3,"COc1ncc(C(=O)NCc2cnn3ncccc23)cc1F [Example 4, 5-fluoro-6-methoxy-N-(pyrazolo[1,5-b]pyridazin-3-ylmethyl)nicotinamide]",85
4,"O=C(NCc1cnn2ccn(CC(F)F)c12)c1cnc(OC(F)F)c(Cl)c1 [Example 80, 5-chloro-N-[{1-(2,2-difluoroethyl)-1H-imidazo[1,2-b]pyrazol-7-yl]methyl}-6-(difluoromethoxy)pyridine-3-carboxamide]",91
5,"Cc1nn2ncc(CNC(=O)c3cnc(OC(F)F)c(F)c3)c2n1C [Example 70, 6-(difluoromethoxy)-N-[(1,2-dimethyl-1H-pyrazolo[1,5-b][1,2,4]triazol-7-yl)methyl]-5-fluoropyridine-3-carboxamide]",100
6,"CCc1nn2ncccc2c1CNC(=O)c1cnc(OC(F)F)c(F)c1 [Example 26, 6-(difluoromethoxy)-N-((2-ethylpyrazolo[1,5-b]pyridazin-3-yl)methyl)-5-fluoronicotinamide]",90
7,"Cc1ccnn2ncc(CNC(=O)c3ccc(OC(F)F)c(F)c3)c12 [Example 36, 4-(difluoromethoxy)-3-fluoro-N-((4-methylpyrazolo[1,5-b]pyridazin-3-yl)methyl)benzamide]",97
8,"O=C(NCc1cnn2ccncc12)c1ccc(OC(F)F)c(F)c1 [Example 44, 4-(difluoromethoxy)-3-fluoro-N-(pyrazolo[1,5-a]pyrazin-3-ylmethyl)benzamide]",94
9,"COCc1nn2ncccc2c1CNC(=O)c1cnc(OC(F)F)c(F)c1 [Example 31, 6-(difluoromethoxy)-5-fIuoro-N-((2-(methoxymethyl)pyrazolo[1,5-b]pyridazin-3-yl)methyl)nicotinamide]",84
10,"O=C(NCc1cnn2ccn(C(F)F)c12)c1cnc(OC(F)F)c(F)c1 [Example 76, 6-(difluoromethoxy)-N-{[1-(difluoromethyl)-1H-imidazo[1,2-b]pyrazol-7-yl]methyl}-5-fluoropyridine-3-carboxamide]",87
11,"Cn1ccn2ncc(CNC(=O)c3cnc(OC(F)F)c(Cl)c3)c12 [Example 59, 5-chloro-6-(difluoromethoxy)-N-((1-methyl-1H-imidazo[1,2-b]pyrazol-7-yl)methyl)nicotinamide]",97
12,"Cc1nn2ncccc2c1CNC(=O)c1cnc(OC(F)F)c(Cl)c1 [Example 46, 5-chloro-6-(difluoromethoxy)-N-((2-methylpyrazolo[1,5-b]pyridazin-3-yl)methyl)nicotinamide]",96
13,"COc1c(F)cc(C(=O)NCc2cnn3ncccc23)cc1F [Example 12, 3,5-difluoro-4-methoxy-N-(pyrazolo[1,5-b]pyridazin-3-ylmethyl)benzamide]",97
14,"O=C(NCc1c(C2CC2)nn2ncccc12)c1cnc(OC(F)F)c(F)c1 [Example 28, N-((2-cyclopropylpyrazolo[1,5-b]pyridazin-3-yl)methyl)-6-(difluoromethoxy)-5-fluoronicotinamide]",85
15,"COc1ncc(C(=O)NCc2cnn3ncccc23)cc1Cl [Example 9, 5-chloro-6-methoxy-N-(pyrazolo[1,5-b]pyridazin-3-ylmethyl)nicotinamide]",87
16,"Cc1nn2ncccc2c1CNC(=O)c1cnc(OC(F)F)c(F)c1 [Example 17, 6-(difluoromethoxy)-5-fluoro-N-((2-methylpyrazolo[1,5-b]pyridazin-3-yl)methyl)nicotinamide]",94
17,"Cc1ccnn2nnc(CNC(=O)c3cnc(OC(F)F)c(F)c3)c12 [Example 53, 6-(difluoromethoxy)-5-fluoro-N-((4-methyl[1,2,3]triazolo[1,5-b]pyridazin-3-yl)methyl)nicotinamide]",84
18,"O=C(NCc1cnn2ccn(CC(F)F)c12)c1cnc(OC(F)F)c(F)c1 [Example 79, N-{[1-(2,2-difluoroethyl)-1H-imidazo[1,2-b]pyrazol-7-yl]methyl}-6-(difluoromethoxy)-5-fluoropyridine-3-carboxamide]",87
19,"Cn1ccn2ncc(CNC(=O)c3ccc(Cl)c(F)c3)c12 [Example 63, 4-chloro-3-fluoro-N-((1-methyl-1H-imidazo[1,2-b]pyrazol-7-yl)methyl)benzamide]",96
